Measured values as given in ChEMBL document CHEMBL4507268 (2021).

Legend:
Conditions in all cases: Compound concentration 1.0 uM
[1] = target: Tyrosine-protein kinase Yes (Homo sapiens) (UniProt P07947)
[2] = target: Ribosomal protein S6 kinase alpha-1 (Homo sapiens) (UniProt Q15418)
[3] = target: T1, Protein kinase C epsilon type (Homo sapiens) (UniProt Q02156)
T1 sequence (whole entry): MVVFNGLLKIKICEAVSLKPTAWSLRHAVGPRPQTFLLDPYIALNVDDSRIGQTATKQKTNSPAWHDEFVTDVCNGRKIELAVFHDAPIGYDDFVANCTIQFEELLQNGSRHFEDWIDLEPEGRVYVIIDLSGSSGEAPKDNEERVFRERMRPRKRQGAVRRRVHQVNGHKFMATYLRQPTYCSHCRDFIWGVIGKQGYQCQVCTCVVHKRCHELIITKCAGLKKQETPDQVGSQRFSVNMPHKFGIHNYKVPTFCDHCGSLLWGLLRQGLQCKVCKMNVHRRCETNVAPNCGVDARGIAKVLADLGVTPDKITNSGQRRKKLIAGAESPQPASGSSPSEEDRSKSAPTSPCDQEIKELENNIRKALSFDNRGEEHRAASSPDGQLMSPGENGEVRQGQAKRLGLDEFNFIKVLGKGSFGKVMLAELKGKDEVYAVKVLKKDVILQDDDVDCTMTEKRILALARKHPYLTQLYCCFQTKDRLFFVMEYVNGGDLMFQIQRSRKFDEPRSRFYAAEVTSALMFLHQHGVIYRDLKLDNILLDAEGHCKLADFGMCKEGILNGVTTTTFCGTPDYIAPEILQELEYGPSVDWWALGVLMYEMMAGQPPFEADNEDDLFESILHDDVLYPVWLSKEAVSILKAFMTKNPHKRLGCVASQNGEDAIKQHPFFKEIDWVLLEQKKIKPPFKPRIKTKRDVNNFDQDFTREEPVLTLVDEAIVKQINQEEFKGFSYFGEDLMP

[4] = target: T2, Serine/threonine-protein kinase haspin (Homo sapiens) (UniProt Q8TF76)
T2 sequence (whole entry): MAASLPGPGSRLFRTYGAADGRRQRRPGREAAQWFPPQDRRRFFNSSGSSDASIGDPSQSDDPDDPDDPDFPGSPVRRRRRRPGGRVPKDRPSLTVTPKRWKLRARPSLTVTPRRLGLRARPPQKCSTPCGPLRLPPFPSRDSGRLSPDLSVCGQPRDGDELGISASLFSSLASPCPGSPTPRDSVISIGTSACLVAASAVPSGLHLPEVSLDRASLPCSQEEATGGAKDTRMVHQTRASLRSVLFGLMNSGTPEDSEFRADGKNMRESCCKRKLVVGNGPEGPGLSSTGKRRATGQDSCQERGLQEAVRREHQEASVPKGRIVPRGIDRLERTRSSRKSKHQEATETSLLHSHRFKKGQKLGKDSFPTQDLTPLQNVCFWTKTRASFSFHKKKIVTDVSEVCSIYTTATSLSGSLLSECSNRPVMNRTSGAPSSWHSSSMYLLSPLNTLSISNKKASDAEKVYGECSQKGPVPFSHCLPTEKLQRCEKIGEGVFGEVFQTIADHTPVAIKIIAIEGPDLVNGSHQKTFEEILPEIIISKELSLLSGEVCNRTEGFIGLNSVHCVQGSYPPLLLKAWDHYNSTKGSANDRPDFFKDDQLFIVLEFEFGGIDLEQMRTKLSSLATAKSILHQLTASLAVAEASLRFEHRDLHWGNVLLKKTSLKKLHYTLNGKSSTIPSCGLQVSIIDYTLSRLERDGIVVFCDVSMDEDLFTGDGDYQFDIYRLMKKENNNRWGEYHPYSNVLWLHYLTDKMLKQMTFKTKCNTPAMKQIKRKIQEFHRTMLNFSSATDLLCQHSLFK

[5] = target: Casein kinase I isoform gamma-2 (Homo sapiens) (UniProt P78368)
Sequence of Casein kinase I isoform gamma-2 (Homo sapiens) (P78368 whole entry, looked up, canonical isoform): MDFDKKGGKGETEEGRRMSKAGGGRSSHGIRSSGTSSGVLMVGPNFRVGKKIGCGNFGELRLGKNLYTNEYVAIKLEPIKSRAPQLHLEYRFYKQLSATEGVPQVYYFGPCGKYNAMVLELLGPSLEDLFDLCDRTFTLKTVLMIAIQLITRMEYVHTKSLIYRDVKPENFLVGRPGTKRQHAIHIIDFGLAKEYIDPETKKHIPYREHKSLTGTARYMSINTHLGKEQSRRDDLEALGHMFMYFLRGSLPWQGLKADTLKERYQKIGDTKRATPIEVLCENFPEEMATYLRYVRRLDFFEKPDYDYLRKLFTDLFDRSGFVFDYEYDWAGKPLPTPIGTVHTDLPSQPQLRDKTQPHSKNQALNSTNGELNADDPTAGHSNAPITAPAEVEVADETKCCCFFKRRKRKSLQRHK

[6] = target: mTOR/FKBP12A/FKBP12B (Homo sapiens) (UniProt P62942+P68106+P42345)
Sequence of mTOR/FKBP12A/FKBP12B (Homo sapiens) (P62942 2-108 limits assumed, other chains not shown): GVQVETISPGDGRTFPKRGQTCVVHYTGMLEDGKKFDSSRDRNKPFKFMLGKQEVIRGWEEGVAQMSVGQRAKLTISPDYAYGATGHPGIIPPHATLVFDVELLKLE
Sequence of mTOR/FKBP12A/FKBP12B (Homo sapiens) (P68106 whole entry partner, other chains not shown): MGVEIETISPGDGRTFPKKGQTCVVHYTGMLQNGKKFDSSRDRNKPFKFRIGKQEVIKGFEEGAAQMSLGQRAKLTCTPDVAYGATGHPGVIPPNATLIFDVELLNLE

[7] = target: Ribosomal protein S6 kinase alpha-2 (Homo sapiens) (UniProt Q15349)
Sequence of Ribosomal protein S6 kinase alpha-2 (Homo sapiens) (Q15349 whole entry): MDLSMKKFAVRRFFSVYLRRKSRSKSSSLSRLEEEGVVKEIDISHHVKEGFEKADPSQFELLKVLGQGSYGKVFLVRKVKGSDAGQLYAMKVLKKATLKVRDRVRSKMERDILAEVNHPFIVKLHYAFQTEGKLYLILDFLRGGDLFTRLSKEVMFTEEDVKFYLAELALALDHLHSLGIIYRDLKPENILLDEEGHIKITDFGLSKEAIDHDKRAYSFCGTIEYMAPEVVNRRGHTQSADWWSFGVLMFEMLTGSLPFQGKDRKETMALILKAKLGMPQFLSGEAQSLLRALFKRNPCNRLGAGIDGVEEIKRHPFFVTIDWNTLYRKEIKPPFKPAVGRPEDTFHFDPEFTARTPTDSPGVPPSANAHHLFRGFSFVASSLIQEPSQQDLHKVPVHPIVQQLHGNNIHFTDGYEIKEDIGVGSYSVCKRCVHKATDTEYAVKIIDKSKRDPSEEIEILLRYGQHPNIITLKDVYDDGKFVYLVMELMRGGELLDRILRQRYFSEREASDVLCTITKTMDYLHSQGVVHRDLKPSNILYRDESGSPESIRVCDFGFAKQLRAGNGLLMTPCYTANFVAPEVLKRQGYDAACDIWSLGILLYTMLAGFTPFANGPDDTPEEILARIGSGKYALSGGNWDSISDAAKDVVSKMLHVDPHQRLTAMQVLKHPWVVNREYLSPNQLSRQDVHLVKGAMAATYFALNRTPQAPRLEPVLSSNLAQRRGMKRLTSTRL

[8] = target: Hepatocyte growth factor receptor (Homo sapiens) (UniProt P08581)
Sequence of Hepatocyte growth factor receptor (Homo sapiens) (P08581 whole entry): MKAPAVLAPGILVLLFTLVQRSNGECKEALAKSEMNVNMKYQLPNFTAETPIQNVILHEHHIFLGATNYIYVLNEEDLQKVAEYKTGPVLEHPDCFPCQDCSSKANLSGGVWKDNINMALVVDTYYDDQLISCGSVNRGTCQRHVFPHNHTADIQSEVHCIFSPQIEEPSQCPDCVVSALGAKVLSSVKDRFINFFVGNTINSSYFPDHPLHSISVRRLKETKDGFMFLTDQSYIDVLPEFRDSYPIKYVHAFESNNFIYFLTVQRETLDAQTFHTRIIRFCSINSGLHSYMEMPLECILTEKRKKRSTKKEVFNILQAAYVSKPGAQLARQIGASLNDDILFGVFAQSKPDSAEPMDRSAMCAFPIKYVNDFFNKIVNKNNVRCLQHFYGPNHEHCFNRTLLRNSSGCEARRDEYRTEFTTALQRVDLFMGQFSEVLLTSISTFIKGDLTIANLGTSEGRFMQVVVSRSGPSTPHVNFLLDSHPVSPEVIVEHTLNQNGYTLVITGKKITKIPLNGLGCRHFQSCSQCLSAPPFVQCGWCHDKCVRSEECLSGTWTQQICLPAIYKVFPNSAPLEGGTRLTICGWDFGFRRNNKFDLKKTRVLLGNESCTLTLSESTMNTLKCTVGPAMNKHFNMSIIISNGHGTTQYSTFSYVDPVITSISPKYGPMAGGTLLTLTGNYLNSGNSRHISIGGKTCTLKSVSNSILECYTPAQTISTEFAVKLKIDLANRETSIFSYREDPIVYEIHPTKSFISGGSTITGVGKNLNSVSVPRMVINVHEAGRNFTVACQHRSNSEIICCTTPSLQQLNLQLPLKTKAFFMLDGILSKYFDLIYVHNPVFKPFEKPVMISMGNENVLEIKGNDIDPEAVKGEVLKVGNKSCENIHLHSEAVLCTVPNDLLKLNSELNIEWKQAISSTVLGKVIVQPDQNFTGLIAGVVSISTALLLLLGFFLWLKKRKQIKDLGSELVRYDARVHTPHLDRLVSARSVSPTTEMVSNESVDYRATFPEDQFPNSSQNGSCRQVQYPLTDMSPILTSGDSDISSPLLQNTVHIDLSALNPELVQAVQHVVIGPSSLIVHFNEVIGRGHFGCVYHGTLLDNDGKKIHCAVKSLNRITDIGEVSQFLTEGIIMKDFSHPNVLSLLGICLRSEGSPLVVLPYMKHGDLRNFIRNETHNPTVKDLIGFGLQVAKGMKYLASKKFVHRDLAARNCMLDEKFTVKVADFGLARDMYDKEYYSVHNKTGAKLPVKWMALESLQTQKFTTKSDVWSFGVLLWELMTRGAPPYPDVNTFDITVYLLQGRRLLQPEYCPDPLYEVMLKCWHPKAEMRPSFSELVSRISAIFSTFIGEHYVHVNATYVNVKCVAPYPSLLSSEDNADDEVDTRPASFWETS

[9] = target: SRSF protein kinase 3 (Homo sapiens) (UniProt Q9UPE1)
Sequence of SRSF protein kinase 3 (Homo sapiens) (Q9UPE1 whole entry): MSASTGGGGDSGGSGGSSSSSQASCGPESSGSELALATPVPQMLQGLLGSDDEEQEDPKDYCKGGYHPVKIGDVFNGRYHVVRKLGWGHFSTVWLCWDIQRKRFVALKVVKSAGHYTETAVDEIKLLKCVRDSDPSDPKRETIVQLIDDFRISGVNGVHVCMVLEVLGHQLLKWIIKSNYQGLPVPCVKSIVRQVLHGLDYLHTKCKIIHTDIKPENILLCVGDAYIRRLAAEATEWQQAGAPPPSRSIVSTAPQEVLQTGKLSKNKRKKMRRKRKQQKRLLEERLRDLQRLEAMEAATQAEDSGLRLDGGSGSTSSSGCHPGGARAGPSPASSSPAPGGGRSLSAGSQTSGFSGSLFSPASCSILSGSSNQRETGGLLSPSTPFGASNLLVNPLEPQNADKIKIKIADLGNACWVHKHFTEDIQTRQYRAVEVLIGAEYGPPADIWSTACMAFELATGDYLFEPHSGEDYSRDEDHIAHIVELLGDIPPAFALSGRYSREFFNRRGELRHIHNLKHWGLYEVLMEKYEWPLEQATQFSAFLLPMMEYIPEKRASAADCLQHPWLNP

[10] = target: T3, Ephrin type-B receptor 4 (Homo sapiens) (UniProt P54760)
T3 sequence (whole entry): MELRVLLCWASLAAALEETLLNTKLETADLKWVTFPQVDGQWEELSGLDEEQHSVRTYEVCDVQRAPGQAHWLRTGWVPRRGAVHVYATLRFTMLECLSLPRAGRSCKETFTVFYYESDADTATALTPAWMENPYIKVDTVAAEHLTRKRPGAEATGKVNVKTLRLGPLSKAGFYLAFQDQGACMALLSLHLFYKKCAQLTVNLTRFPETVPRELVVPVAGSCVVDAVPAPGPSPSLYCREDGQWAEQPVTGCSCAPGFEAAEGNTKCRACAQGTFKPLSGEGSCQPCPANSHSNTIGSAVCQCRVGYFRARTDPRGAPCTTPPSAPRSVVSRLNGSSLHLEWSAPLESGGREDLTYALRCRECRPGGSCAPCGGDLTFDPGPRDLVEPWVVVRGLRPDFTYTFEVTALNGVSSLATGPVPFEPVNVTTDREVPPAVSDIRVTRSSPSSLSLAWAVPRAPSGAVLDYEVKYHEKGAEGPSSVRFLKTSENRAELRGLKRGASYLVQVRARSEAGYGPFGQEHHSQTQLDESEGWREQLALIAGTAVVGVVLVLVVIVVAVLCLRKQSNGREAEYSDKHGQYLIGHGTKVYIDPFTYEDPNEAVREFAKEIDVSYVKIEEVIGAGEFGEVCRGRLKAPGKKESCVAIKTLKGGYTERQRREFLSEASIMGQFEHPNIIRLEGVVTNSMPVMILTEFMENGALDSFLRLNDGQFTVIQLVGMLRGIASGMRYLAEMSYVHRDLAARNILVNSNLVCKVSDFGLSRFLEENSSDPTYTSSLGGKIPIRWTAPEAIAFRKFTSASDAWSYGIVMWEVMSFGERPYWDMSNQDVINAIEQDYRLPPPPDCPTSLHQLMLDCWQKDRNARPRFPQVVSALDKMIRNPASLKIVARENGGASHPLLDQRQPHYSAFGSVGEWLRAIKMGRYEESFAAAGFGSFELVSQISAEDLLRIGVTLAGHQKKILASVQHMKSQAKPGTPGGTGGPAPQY

Measured: % residual kinase activity

Sequence of Ribosomal protein S6 kinase alpha-1 (Homo sapiens) (Q15418 whole entry): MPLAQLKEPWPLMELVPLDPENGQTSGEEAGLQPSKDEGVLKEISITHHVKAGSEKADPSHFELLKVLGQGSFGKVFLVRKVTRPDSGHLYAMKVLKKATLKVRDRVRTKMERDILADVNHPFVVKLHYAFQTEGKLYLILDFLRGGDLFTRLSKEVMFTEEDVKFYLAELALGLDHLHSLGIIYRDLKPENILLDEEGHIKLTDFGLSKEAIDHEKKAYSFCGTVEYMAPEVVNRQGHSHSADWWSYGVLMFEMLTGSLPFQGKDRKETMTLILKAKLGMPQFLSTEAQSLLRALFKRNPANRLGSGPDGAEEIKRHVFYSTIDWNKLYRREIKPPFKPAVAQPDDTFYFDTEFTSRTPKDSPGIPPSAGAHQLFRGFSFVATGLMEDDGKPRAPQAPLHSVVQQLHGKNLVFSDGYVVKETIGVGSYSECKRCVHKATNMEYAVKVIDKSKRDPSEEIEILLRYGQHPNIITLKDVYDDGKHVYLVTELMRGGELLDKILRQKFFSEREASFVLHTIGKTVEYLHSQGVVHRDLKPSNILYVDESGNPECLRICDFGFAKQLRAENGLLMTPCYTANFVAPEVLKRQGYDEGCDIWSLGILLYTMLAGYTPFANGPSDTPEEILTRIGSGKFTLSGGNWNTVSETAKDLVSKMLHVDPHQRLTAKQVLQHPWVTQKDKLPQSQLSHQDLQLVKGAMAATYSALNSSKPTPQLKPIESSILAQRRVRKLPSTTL
Sequence of Tyrosine-protein kinase Yes (Homo sapiens) (P07947 2-543 limits assumed): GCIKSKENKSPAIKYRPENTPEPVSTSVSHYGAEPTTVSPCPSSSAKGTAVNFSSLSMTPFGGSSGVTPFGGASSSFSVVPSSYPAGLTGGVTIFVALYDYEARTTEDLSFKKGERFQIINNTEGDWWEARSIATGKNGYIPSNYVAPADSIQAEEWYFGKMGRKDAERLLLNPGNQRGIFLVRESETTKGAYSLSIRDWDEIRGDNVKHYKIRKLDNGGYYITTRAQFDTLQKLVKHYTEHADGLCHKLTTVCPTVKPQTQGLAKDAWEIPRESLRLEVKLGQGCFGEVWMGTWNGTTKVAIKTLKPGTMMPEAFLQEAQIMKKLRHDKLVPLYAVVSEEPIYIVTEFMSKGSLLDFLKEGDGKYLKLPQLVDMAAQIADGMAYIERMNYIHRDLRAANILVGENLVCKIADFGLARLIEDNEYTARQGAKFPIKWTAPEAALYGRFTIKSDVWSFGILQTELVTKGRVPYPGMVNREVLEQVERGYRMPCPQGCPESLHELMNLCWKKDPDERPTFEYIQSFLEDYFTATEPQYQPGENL

CN1CCN(c2cnc3c(C4CCN(C(=O)c5ccc(OC(F)(F)F)cc5N)CC4)ncnc3c2)CC1 [BAY-885]
inactive: [1] 99% | [2] 121% | [3] 104% | [4] 105% | [5] 91% | [6] 101% | [7] 98% | [8] 93% | [9] 78% | [10] 103%
